These results are taken from patent US9108978B2, “Antimicrobial compounds” (ADELAIDE RESEARCH & INNOVATION PTY LTD, priority 2011, dated 2015).

For assay [1], the target named is M. tuberculosis BPL (Mycobacterium tuberculosis (strain ATCC 25618 / H37Rv), UniProt I6YFP0). Briefly: BPL inhibition, M. tuberculosis BPL. The format is biochemical, Mycobacteria tuberculosis.
Assay [2] has as its target biotin protein ligase from S. aureus (SaBPL) (Staphylococcus aureus, UniProt A0A3A5LBF0). As to the kind of experiment: BPL enzyme inhibition assay (3H-biotin incorporation), SaBPL. The format is biochemical. The note with it: for IC50: 4 nM BPL, 20 minutes at 37° C.; for selectivity towards SaBPL over HsBPL (human BPL): Hs vs SaBPL. The procedure:
(§1) Quantitation of BPL catalysed ^3H-biotin incorporation into the biotin domain substrate was performed as previously described by Polyak et al, J. Biol. Chem (1999) 274(46) 32847-54. Briefly, the reaction mixture contained: 50 mM Tris HCl pH 8.0, 3 mM ATP, 4.5 μM biotin, 0.5 μM ^3H-biotin, 5.5 mM MgCl2, 100 mM KCl, 0.1 mg/mL BSA and 10 μM biotin domain of S. aureus pyruvate carboxylase. The reaction was initiated by the addition of BPL to a final concentration of 4 nM. After 20 minutes at 37° C., 4 μL aliquots of the reaction were spotted onto Whatman paper pre-treated with biotin and trichloroacetic acid. The filters were washed twice with 10% v/v ice-cold trichloroacetic acid and once with ethanol before air-drying. Quantitation of protein-bound radiolabelled biotin was performed by liquid scintillation. One unit of enzyme activity was defined by the amount of BPL required to incorporate 1 nmol of biotin per minute. The IC50 value of each compound was determined from a dose-response curve by varying the concentration of the inhibitor under the same enzyme concentration. The data was analysed with GraphPad Prism using a non-linear fit of log10 (inhibitor) vs. normalized response. The Ki, the absolute inhibition constant for a compound, was determined using Eq 1:
The mode of inhibition was investigated by varying the concentrations of inhibitor alongside varying the concentrations of ^3H-biotin. The data was plotted as double reciprocal plots and assessed using Lineweaver-Burk analysis.
Triazoles 6.02-6.10 were assayed for inhibitory activity against the biotin protein ligases from S. aureus (SaBPL), Escherichia coli (EcBPL) and Homo sapiens (HsBPL) (Table 3). The inhibitory activity of the compounds was determined by measuring BPL activity with varying concentrations of inhibitors. From the dose-response curves IC50 values were determined and Ki values calculated.

For assay [3], the system named is Enterococcus faecium. Briefly: Antimicrobial microbroth dilution assay, E. faecium. The assay is classed as cell-based. How it is done:
(§2) The biotin-triazoles were assessed for their antimicrobial activity using a microbroth dilution assay as recommended by the CLSI (Clinical and Laboratory Standards Institute, Document […]-A8, 2009, Wayne, Pa.) with cation-adjusted Mueller-Hinton broth (Trek Diagnostics Systems, U.K.). Compounds were dissolved using DMSO. Serial two-fold dilutions of each compound were made using DMSO as the diluent. Trays were inoculated with 5×10^4 CFU of each strain in a volume of 100 μL (final concentration of DMSO was 5% (v/v)), and incubated at 35° C. for 16-20 hours when the optical density of the growth cultures was measured by spectroscopy at wavelength 620 nm. A library of Gram negative and Gram positive microbes was employed.

Assay [4] deals with Enterococcus faecalis. As to the kind of experiment: Antimicrobial microbroth dilution assay, E. faecalis. The format is cell-based. How it is done: as §2
Assay [5] has as its target biotin protein ligase from Homo sapiens (HsBPL) (Homo sapiens (Human), UniProt P50747). As to the kind of experiment: BPL enzyme inhibition assay (3H-biotin incorporation), HsBPL. The assay is classed as biochemical. How it is done: as §1
(§3) The inhibitory activity of the compounds was determined by measuring BPL activity with varying concentrations of inhibitors. From the dose-response curves IC50 values were determined and Ki values calculated.

Assay [6] concerns S. aureus ATCC 49775. Briefly: Antimicrobial microbroth dilution assay, S. aureus. The format is cell-based, Staphylococcus aureus. The settings on record: at 8 μg/ml. How it is done: as §2, with “employed. […] Inhibition of the growth of S. aureus ATCC 49775 was measured using a microbroth dilution assay with varying concentrations of BPL inhibitors. […] The antibiotic erythromycin was also included (X).” for “employed.”
(In general: In broth dilution the organism is exposed to a series of concentrations in liquid medium.)

Assay [7] concerns the target biotin protein ligase from Escherichia coli (EcBPL) (Escherichia coli (strain K12), UniProt P06709). As to the kind of experiment: BPL enzyme inhibition assay (3H-biotin incorporation), EcBPL. The assay is classed as biochemical. The procedure: as §1, §3
The mark [8] stands for this setting: read-out: Ki EcBPL (E. coli BPL).
The mark [9] stands for this setting: calculated from IC50, [biotin]=5 μM, Km 1 μM, read-out: Ki SaBPL.

Where two headings read alike, the source gives them in different places. Some results are limits rather than exact numbers.

Chain of biotin protein ligase from Homo sapiens (HsBPL) (P50747 whole entry): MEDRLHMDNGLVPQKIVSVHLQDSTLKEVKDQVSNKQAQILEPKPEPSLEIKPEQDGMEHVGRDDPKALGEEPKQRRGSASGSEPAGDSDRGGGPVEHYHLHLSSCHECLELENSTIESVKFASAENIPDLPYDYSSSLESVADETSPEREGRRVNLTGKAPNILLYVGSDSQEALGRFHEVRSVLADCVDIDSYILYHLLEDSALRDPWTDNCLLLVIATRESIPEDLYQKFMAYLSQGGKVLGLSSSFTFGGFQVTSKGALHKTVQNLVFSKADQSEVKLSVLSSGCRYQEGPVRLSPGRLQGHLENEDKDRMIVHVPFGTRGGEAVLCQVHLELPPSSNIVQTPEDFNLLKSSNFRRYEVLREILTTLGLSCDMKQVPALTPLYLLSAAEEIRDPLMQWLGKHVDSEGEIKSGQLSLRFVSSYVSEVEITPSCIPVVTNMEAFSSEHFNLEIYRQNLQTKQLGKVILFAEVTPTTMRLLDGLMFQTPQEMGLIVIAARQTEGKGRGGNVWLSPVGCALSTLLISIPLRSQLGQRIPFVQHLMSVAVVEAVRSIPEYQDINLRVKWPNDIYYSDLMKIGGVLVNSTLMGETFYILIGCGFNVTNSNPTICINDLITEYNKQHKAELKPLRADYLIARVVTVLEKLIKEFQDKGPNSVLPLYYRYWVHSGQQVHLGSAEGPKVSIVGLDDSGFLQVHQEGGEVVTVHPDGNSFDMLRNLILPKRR
Chain of biotin protein ligase from Escherichia coli (EcBPL) (P06709 whole entry, looked up): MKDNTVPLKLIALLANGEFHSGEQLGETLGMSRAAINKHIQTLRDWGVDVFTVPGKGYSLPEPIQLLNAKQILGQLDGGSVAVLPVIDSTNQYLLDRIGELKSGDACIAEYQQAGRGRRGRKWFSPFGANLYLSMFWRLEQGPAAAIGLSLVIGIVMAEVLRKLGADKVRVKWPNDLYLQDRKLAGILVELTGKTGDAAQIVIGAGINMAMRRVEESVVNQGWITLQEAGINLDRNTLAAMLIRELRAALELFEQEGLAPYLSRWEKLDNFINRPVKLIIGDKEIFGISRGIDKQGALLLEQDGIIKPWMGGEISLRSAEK
Chain of biotin protein ligase from S. aureus (SaBPL) (A0A3A5LBF0 1-323): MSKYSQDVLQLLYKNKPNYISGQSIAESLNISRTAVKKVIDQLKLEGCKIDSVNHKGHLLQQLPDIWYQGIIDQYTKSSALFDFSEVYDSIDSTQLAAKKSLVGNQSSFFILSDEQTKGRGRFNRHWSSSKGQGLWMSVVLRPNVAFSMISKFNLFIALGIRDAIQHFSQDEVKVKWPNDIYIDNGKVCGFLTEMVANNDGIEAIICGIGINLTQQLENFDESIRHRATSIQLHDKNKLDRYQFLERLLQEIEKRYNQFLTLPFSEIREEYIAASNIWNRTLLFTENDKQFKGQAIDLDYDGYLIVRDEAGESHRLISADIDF
Chain of M. tuberculosis BPL (I6YFP0 whole entry, looked up): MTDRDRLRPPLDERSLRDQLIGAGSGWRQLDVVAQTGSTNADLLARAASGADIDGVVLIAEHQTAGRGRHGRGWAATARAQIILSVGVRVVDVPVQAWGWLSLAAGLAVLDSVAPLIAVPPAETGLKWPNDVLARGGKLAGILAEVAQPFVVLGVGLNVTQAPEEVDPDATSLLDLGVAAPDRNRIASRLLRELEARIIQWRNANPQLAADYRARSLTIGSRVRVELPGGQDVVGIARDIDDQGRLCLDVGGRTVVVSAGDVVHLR

By Ki is commonly meant the equilibrium dissociation constant of an inhibitor or competing ligand from its target. As for `Cc1ccc2oc(=O)n(CCCCc3noc(CCCCC[C@@H]4SC[C@@H]5NC(=O)N[C@@H]54)n3)c2c1` [compound 2, 3-[4-[5-[5-[(3aS,4S,6aR)-2-oxo-1,3,3a,4,6,6a-hexahydrothieno[3,4-d]imidazol-4-yl]pentyl]-1,2,4-oxadiazol-3-yl]butyl]-5-methyl-1,3-benzoxazol-2-one], the Ki was 290 ± 16 µM in assay [1] and 2.2 ± 0.8 µM in assay [2].
Usually IC50 stands for the concentration that inhibits the measured activity by half. As for `Cc1ccc2oc(=O)n(CCCCn3cc(CCCCC[C@@H]4SC[C@@H]5NC(=O)N[C@@H]54)nn3)c2c1` [6.09], the “inhibition of growth of Enterococcus faecium” value in assay [3] was “no inhibition of growth”. Also, the “inhibition of growth of Enterococcus faecalis” value in assay [4] is given as “no inhibition of growth”. The Ki in assay [5] was greater than 30 µM. Also, in assay [2], the “fold increase in potency against SaBPL compared to 4.01” value stood at 7 fold, the “fold less potent against SaBPL compared to biotinol-5′-AMP 2.02” value (from here on “fold less potent … to biotinol-5′-AMP 2.02”) was 3 fold, the “selectivity towards SaBPL over EcBPL (E. coli BPL)” value is greater than 1000 fold and the IC50 is 0.53 ± 0.01 µM. In assay [2], the “selectivity towards SaBPL over HsBPL (human BPL)” value was greater than 1000 fold. For the same compound, in assay [2] (read-out: Ki SaBPL), the Ki was found to be 0.09 ± 0.02 µM. Also, the “prevention of cell growth of S. aureus ATCC 49775” value in assay [6] was determined as 80%. Also, the Ki in assay [7] (setting [8]) is greater than 30 µM.
In turn, `CC1(C)O[C@@H]2[C@H](O1)[C@@H](n1cnc3c(N)ncnc31)O[C@H]2Cn1cc(CCCC[C@@H]2SC[C@@H]3NC(=O)N[C@@H]32)nn1` [4.09] had a Ki in assay [5] greater than 10 µM. In assay [2], the Ki worked out at 7.53 ± 1.9 µM, the “fold less potent against SaBPL compared to triazole 3.25” value is recorded as 4 fold and the “inhibition against SaBPL” value was “micromolar inhibition”. Further, in assay [7], the inhibition constant (Ki) is greater than 10 µM.
Take `Nc1ncnc2c1ncn2CCCCn1cc(CCCCC[C@@H]2SC[C@@H]3NC(=O)N[C@@H]32)nn1` [4.01]: the Ki in assay [5] was greater than 90 µM; in assay [2] (setting [9]), 0.66 ± 0.15 µM; in assay [7], greater than 90 µM; in assay [7] (setting [8]) it was greater than 30 µM. The results for the IC50 in assay [5] (in b132 the quantity is not named), in assay [2] and in assay [7] were greater than 200 µM, 4 ± 0.9 µM and greater than 200 µM, respectively. In addition, the “fold less potent … to biotinol-5′-AMP 2.02” value in assay [2] is given as 22 fold. Besides, in assay [2], the “inhibition against SaBPL” value is reported as “micromolar inhibition”. Besides, the “selectivity towards SaBPL over EcBPL (E. coli BPL)” value in assay [2] is given as “at least 400 fold”. Besides, the “selectivity towards SaBPL over HsBPL (human BPL)” value in assay [2] is reported as “at least 400 fold”.
In the case of `CC1(C)O[C@@H]2[C@H](O1)[C@@H](n1cnc3c(N)ncnc31)O[C@H]2Cn1cc(CCCCC[C@@H]2SC[C@@H]3NC(=O)N[C@@H]32)nn1` [3.25], the Ki in assay [5] is greater than 90 µM; in assay [2] (read-out: Ki SaBPL) it was 1.83 ± 0.33 µM; in assay [7] it was greater than 90 µM; in assay [7] (setting [8]), greater than 30 µM. Also, the “fold less potent … to biotinol-5′-AMP 2.02” value in assay [2] stood at 60 fold. Also, the IC50 in assay [2] stood at 11.6 ± 2.2 µM. The “selectivity towards SaBPL over HsBPL (human BPL)” value in assay [2] is given as greater than 16 fold.
`O=C1N[C@H]2[C@H](CS[C@H]2CCCCCc2cn(CCCCOc3ccc4ccccc4c3)nn2)N1` [6.07]: the Ki is greater than 30 µM in assay [5], 1.17 ± 0.17 µM in assay [2] (setting [9]) and greater than 30 µM in assay [7] (setting [8]). For the same compound, in assay [2], the “fold less potent against SaBPL compared to 4.01” value was determined as 7 fold. In assay [2], this compound displayed an IC50 of 7 ± 1 µM.
`Nc1ncnc2c1ncn2CCCCCn1cc(CCCC[C@@H]2SC[C@@H]3NC(=O)N[C@@H]32)nn1` [4.13] showed a Ki in assay [5] greater than 10 µM. For the same compound, in assay [2], the Ki was 2.86 ± 0.75 µM, the “fold less potent against SaBPL compared to 4.01” value is reported as 4 fold and the “inhibition against SaBPL” value is recorded as “micromolar inhibition”. The compound also displayed a Ki in assay [7] greater than 10 µM.
For `Cc1ccc2oc(=O)n(CCCCOP(=O)(O)OCCCCC[C@@H]3SC[C@@H]4NC(=O)N[C@@H]43)c2c1`, the IC50 in assay [2] was greater than 50 µM. Further, the Ki in assay [2] (setting [9]) was greater than 10 µM.
In the case of biotin alkyne [3.12], the Ki in assay [2] (read-out: Ki SaBPL) worked out at 0.33 ± 0.05 µM.
